Data: US12643867B2, “Compositions and uses thereof” (University of Virginia Patent Foundation, priority 2017, dated 2026)

Experiments:
[1] = molecular target: Alpha (DGK alpha; only in reference sheet cells) (Rattus norvegicus, UniProt P51556); assay: DGK isoform % Activity screen; format: biochemical; details: for activity at 1000 µM: read-out: 1 mM % Activity (section without isoform head; Alpha); for activity at 100 µM: read-out: 100 uM % Activity (section without isoform head; Alpha)
[2] = molecular target: Zeta (DGK zeta) (Homo sapiens, UniProt Q13574); assay: DGK isoform % Activity screen; format: biochemical; details: for activity at 1000 µM: read-out: 1 mM % Activity, Zeta
[3] = molecular target: Gamma (DGK gamma) (Homo sapiens, UniProt P49619); assay: DGK isoform % Activity screen; format: biochemical; details: for activity at 1000 µM: read-out: 1 mM % Activity, Gamma
[4] = molecular target: T1, recombinant DGKα (Rattus norvegicus, UniProt P51556); assay: Gel-based ATP acyl phosphate chemical proteomic assay; format: binding; details: compounds 100 μM (ATP 1 mM; RF001 at indicated concentrations), 30 min; probe 10 μM
T1 construct: expressed in transfected cells; host or cells: HEK293T (SILAC HEK293T for LC-MS)
Protocol: Cell pellets were resuspended in kinase buffer (Dulbecco's PBS (DPBS, Hyclone), 20 mM MgCl2, EDTA-free protease inhibitors (Pierce)) and then lysed by sonication (3×1 sec pulse, 20% amplitude). The cell lysates were then subjected to centrifugation (100,000×g, 45 min at 4° C.) to isolate the cytosolic fraction in the supernatant and the membrane fraction as a pellet. The membrane pellet was resuspended in kinase buffer by sonication. […] The only exception was experiments involving DGKE; recombinant DGKE protein was most prominently expressed in the membrane fraction and so this fraction was utilized to study DGKE enzyme (see FIG. 8). Protein concentrations were measured using the Bio-Rad DC protein assay. Samples were stored at −80° C. until use.
Proteome concentration was adjusted to 2 mg/mL in kinase buffer. Proteomes were first pre-treated with compound (0.6 μL, 50× stock in DMSO) mixed with gentle flicking, and incubated for 30 min at 25° C. in a microfuge tube (30 μL reaction volume). […] Reactions were then quenched with 10 AL of 4×SDS-PAGE loading buffer. Protein samples (15 μL) were loaded onto 4-20% TGX Stain-Free Protein Midi Gel and resolved by SDS-PAGE at 150V for 55 min. Proteins were then transferred to a nitrocellulose blot by Bio-Rad Trans-Blot Turbo Transfer System (25V. 10 min) to enhance sensitivity. The nitrocellulose blot was then incubated in blocking solution (30 mL, 3% BSA in TBS-T) for 1 h at 25° C. with gentle shaking. The blot was then transferred immediately to antibody solution (30 mL, 5% BSA in ddH2O with 0.1% Tween20 and 1:3000 Streptavidin DyLight 550) and incubated for 2 h at 25° C. with gentle shaking. The blot was then rinsed 5 times for 5 min in TBS-T. and then transferred into ddH2O. The blot was then imaged by in-blot fluorescence scanning on a ChemiDoc MP Imaging System. Fluorescence intensity signals were normalized to total lane protein using the Bio-rad Stain Free imaging (Posch et al., 2013).
The percentage of enzyme activity remaining was determined by comparing integrated band intensities or luminescence of inhibitor—with DMSO-treated samples for gel-based chemical proteomic or ADP-glo assays, respectively. For both chemical proteomic and ADP-glo methods, nonlinear regression analysis was used to determine the IC50 values from a dose-response curve generated using GraphPad Prism. Data are shown as mean±s.e.m. Determination of significance was performed by one-way ANOVA. All statistical analyses were performed using GraphPad Prism.

Sequence of Alpha (DGK alpha; only in reference sheet cells) (P51556 whole entry, canonical isoform): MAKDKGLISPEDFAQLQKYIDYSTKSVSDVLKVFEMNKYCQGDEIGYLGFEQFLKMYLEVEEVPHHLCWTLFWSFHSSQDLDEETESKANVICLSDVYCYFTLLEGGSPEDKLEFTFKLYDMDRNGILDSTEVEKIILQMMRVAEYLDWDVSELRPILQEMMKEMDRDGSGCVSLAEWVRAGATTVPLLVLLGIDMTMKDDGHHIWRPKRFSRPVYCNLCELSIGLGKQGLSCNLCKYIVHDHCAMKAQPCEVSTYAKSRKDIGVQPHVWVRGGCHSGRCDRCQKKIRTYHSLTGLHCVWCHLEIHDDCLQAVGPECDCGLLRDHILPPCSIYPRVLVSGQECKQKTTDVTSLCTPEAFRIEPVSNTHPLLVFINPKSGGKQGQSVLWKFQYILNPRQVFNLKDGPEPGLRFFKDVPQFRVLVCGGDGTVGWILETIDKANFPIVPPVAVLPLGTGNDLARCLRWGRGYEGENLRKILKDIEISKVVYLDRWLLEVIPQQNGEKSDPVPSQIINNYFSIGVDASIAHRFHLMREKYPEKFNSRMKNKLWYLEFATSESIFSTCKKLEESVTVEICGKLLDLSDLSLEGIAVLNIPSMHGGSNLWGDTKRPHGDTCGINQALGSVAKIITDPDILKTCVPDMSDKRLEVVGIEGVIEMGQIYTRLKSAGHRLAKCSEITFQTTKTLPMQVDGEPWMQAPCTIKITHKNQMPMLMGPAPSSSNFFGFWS
Sequence of Gamma (DGK gamma) (P49619 whole entry, canonical isoform): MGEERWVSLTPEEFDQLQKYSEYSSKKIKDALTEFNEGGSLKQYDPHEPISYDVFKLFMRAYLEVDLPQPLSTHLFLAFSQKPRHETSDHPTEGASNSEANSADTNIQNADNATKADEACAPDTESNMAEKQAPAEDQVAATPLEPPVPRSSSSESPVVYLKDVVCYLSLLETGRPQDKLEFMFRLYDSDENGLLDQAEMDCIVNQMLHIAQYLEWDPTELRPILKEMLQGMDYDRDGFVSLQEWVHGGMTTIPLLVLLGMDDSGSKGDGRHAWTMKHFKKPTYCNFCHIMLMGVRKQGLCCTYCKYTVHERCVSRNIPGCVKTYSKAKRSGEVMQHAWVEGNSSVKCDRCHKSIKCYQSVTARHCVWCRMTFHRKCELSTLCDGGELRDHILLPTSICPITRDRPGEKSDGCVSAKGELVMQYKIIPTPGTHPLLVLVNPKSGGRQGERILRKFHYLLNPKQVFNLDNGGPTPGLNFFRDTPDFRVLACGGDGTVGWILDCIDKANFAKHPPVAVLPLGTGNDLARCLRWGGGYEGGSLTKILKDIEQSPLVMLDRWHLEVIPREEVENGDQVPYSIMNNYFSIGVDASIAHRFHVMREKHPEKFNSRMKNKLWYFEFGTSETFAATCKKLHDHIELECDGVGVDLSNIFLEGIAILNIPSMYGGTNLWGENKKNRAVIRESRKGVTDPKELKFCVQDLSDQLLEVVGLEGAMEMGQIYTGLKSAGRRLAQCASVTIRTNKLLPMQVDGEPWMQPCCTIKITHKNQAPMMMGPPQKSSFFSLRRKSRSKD
Sequence of Zeta (DGK zeta) (Q13574 whole entry, canonical isoform): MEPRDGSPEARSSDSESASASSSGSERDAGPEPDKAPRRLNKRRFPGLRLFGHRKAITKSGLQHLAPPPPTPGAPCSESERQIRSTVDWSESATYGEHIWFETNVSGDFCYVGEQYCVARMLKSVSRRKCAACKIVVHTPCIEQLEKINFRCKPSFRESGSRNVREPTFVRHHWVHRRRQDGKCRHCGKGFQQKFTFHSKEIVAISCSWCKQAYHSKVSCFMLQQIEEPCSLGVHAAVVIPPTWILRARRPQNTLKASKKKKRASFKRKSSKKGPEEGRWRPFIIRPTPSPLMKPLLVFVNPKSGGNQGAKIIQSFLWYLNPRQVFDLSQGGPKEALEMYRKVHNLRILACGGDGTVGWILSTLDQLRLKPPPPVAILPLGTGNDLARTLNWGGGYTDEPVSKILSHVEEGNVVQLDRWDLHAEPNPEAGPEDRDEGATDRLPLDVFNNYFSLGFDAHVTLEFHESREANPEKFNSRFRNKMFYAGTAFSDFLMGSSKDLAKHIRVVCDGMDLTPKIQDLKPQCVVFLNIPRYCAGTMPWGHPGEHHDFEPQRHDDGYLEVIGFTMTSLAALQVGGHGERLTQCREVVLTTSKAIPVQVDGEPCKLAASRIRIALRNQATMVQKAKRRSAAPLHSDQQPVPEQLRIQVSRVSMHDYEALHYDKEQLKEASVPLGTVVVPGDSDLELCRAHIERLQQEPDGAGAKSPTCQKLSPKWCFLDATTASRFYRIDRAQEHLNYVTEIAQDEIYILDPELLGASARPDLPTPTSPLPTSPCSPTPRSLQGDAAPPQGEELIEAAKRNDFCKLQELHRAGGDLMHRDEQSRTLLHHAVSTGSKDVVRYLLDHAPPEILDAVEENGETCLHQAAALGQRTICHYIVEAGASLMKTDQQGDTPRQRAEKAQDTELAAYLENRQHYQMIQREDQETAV
T1 sequence (P51556 whole entry): as the sequence (P51556 whole entry, canonical isoform) above

| SMILES | activity at 1000 µM [1] | activity at 100 µM [2] | activity at 1000 µM [2] | activity at 100 µM [1] | activity at 100 µM [3] | activity at 1000 µM [3] | blockade of DGKα ATP probe labeling [4] |
| --- | --- | --- | --- | --- | --- | --- | --- |
| c1ccc(C(c2ccccc2)C2CCNCC2)cc1 [TH012] | 41% | 99% | 15% | – | – | – | – |
| c1ccc(C(=C2CCNCC2)c2ccccc2)cc1 [TH011] | 0% | 96% | 0% | 78% | – | – | – |
| c1ccc2c(c1)-c1ccccc1C2N1CCNCC1 [TH002] | 0% | 98% | 0% | 84% | – | – | – |
| COc1ccc(C(=C2CCNCC2)c2ccc(OC)cc2)cc1 [TH025] | 4.4% | 103% | 0% | 79% | – | – | – |
| CN(C)CCOc1ccc(/C(=C(/CCCl)c2ccccc2)c2ccccc2)cc1 [TH005] | 14% | 86% | 0% | 103% | – | – | – |
| Fc1ccc(C(c2ccc(F)cc2)N2CCN(CCCN3CCCC3)CC2)cc1 [TH032] | 8% | 80% | 0% | 94% | – | – | – |
| Fc1ccc(C(c2ccc(F)cc2)N2CCN(CCCN3CCN(C(c4ccc(F)cc4)c4ccc(F)cc4)CC3)CC2)cc1 [TH033] | 4% | 82% | – | 72% | – | – | – |
| Clc1ccc(C(=C2CCNCC2)c2ccc(Cl)cc2)cc1 [TH040] | 4% | 85% | 0% | 78% | 101% | 5% | – |
| Cc1nc2sccn2c(=O)c1CCN1CCC(=C(c2ccccc2)c2ccc(F)cc2)CC1 [R59022] | – | – | – | – | – | – | blocked DGKα probe labeling |
| OC(c1ccc(C(F)(F)F)cc1)(c1ccc(C(F)(F)F)cc1)C1CCNCC1 [TH039] | 6% | 94% | 1% | 81% | 91% | 1% | – |
| Fc1ccc(C(c2ccc(F)cc2)N2CCN(C3CCNCC3)CC2)cc1 [TH024] | 3% | 72% | 0% | 84% | – | – | – |
| Fc1ccc(C(c2ccc(F)cc2)C2CCNCC2)cc1 [TH010] | 64% | 96% | 30% | – | – | – | – |
| CN1C2CCC1CC(OC(c1ccccc1)c1ccccc1)C2 (stereo not drawn) [TH004] | – | 82% | 21% | – | – | – | – |
| OCCCN1CCN(C(c2ccc(F)cc2)c2ccc(F)cc2)CC1 [TH031] | 26% | 105% | 0% | 107% | – | – | – |
| Fc1ccc(C(c2ccc(F)cc2)N2CCN(Cc3ccc4ccccc4n3)CC2)cc1 [TH022] | 60% | 135% | 193% | 103% | – | – | – |
| CS(=O)(=O)N1CCC(=C(c2ccc(F)cc2)c2ccc(F)cc2)CC1 [TH035] | 40% | 112% | 100% | 88% | – | – | – |
| OCCN1CCN(C(c2ccc(F)cc2)c2ccc(F)cc2)CC1 [TH030] | 36% | 91% | 5% | 103% | – | – | – |
| CC(=O)N1CCN(C(c2ccc(F)cc2)c2ccc(F)cc2)CC1 [TH016] | 139% | 98% | 108% | – | – | – | – |
| Cc1ccc(C(=C2CCNCC2)c2ccc(C)cc2)cc1 [TH019] | 1% | 103% | 0% | 92% | – | – | – |
| CS(=O)(=O)N1CCN(C(c2ccc(F)cc2)c2ccc(F)cc2)CC1 [TH036] | 74% | 108% | 105% | 93% | – | – | – |
| Fc1ccc(C(=C2CCN(Cc3ccc4ccccc4n3)CC2)c2ccc(F)cc2)cc1 [TH029] | 73% | 169% | 252% | 125% | – | – | – |
| Fc1ccc(C(c2ccc(F)cc2)N2CCNCC2)cc1 [TH001] | 0% | 102% | 0% | 72% | 99% | 0% | – |
| OC(c1ccc(F)cc1)(c1ccc(F)cc1)C1CCNCC1 [TH028] | 0% | 125% | 0% | 96% | – | – | – |
| O=c1c2ccccc2[nH]c(=S)n1CCN1CCC(=C(c2ccc(F)cc2)c2ccc(F)cc2)CC1 [R59949] | – | – | – | – | – | – | blocked DGKα probe labeling |
| Fc1ccc(C(=C2CCCN(Cc3ccccc3)C2)c2ccc(F)cc2)cc1 [TH014] | 160% | 140% | 327% | – | – | – | – |
